Reference: patent US20220220041A1, “USE OF UREA AS AN ANTIMICROBIAL ADDITIVE IN AN AQUEOUS SUSPENSION” (Omya International AG, priority 2019, published 2022)

Key:
[1] = tested on: total viable bacteria, not inoculated; assay: Example 2 preservation efficacy: H60 slurry with 61 wt.-% urea solution, control samples not inoculated, TVC; type: cell-based; conditions: inoculum none, 30° C.
Protocol: (§1) All quoted bacterial counts (Total viable counts (TVC) values), unless otherwise indicated, are given in cfu/ml and determined after at least 2 days following plate-out and incubation at 30° C. and in accordance with the counting method described in “Bestimmung von aerobe mesophilen Keimen”, Schweizerisches Lebensmittelbuch, chapter 56, section 7.01, edition of 1985, revised version of 1988.
(§2) Unless otherwise stated, per tryptic soy agar plate (TSA, prepared using BD 236950) 0.1 ml of a solution or suspension is plated. Counts from 10000 cfu/ml to 99999 cfu/ml are reported as >1E4 cfu/ml. Counts from 100000 cfu/ml to 999999 cfu/ml are reported as >1E5 cfu/ml. Counts above 1000000 cfu/ml are reported as >1E6 cfu/ml.
(§3) 50 g sterile slurry H60 with a solid content of 76.5 wt.-%, based on the total weight of the H60 slurry is supplemented with different amounts of 61 wt.-% urea solution or water. The samples are then inoculated with 1 ml non-sterile calcium carbonate slurry (H60), 1 ml non-sterile calcium carbonate slurry (H90), 0.02 ml overnight culture of Escherichia coli (DSMZ 46295) and 0.02 ml overnight culture of Pseudomonas putida. The control samples are not inoculated. Samples are incubated at 30° C. and the TVC and pH are determined at various time points (0 day, 1 day, 4, days, 8 days, 9 days and/or 13 days).

Pseudomonas putida [2] = assay: Example 2 preservation efficacy: H60 slurry with 61 wt.-% urea solution, P. putida inoculum, TVC; type: cell-based; conditions: 30° C.
Protocol: as §1, §2
(§4) For the preparation of inoculum with a single bacterial species (for example Escherichia coli (DSMZ 46295) or Pseudomonas putida), bacteria are spread onto Tryptic soy broth agar (BD, 236950) by dilution streaking followed by incubation at 30° C. for at least 24 h until colonies appear. Overnight cultures are generated by inoculation of 3 ml Tryptic soy broth (Fluka 22092) with a single colony followed incubation with agitation at […] at 30° C. for 24 h.
as §3

[3] = tested on: non-sterile calcium carbonate slurry (H90), environmental bacteria; assay: Example 2 preservation efficacy: H60 slurry with 61 wt.-% urea solution, non-sterile H90 inoculum, TVC; type: cell-based; conditions: 30° C.
Protocol: as §1, §2
Non-sterile slurries (H60 or H90) contain contamination with environmental bacteria at a TVC>100000 cfu/ml. The contamination originates spontaneously and a bacterial burden of at least>100000 cfu/ml is confirmed prior use as inoculum by TVC. The following bacterial species are known to occur, as identified by 16S RNA sequencing or MALDI-TOF-MS analysis: Rhizobium radiobacter, Brevundimonas intermedia, Brevundimonas diminiuta, Sphingomonas sp., Pseudomonas stutzeri, Pseudomonas sp., Comomonas aquatic.
as §3

[4] = tested on: Escherichia coli (DSMZ 46295); assay: Example 3 preservation efficacy: H60 slurry with industrial grade urea solution, E. coli inoculum, TVC; type: cell-based; conditions: industrial grade urea 5.5%, calcium carbonate 69%, water 25.5% w/w, 30° C.
Protocol: as §1, §2, §4
(§5) 50 g sterile calcium carbonate slurry (H60) with a solid content of 77.3 wt.-%, based on the total weight of the H60 slurry is supplemented with industrial grade 50% (w/w) urea solution (Yara Canda Inc.) or water to different final concentrations. The industrial grade contained natural resident (i.e. bacteria in a non-growing state) bacteria. The bacterial of the industrial urea burden is 5 cfu/3 ml as determined by TVC. The species are identified by characterizing the grown colonies from the TVC by 16 S RNA sequencing, known to the person skilled in the art.
(§6) The samples are further artificially inoculated with 1 ml non-sterile calcium carbonate slurry (H60), 1 ml non-sterile calcium carbonate slurry (H90), 0.02 ml overnight culture of Escherichia coli (DSMZ 46295) and 0.02 ml overnight culture Pseudomonas putida. The control sample are not inoculated. […]

Pseudomonas putida [5] = assay: Example 3 preservation efficacy: H60 slurry with industrial grade urea solution, P. putida inoculum, TVC; type: cell-based; conditions: industrial grade urea 5.5%, calcium carbonate 69%, water 25.5% w/w, 30° C.
Protocol: as §1, §2, §4, §5, §6

[6] = pH measurement of the suspension; type: physicochemical; conditions: 30° C.; for pH Day 8: Table 2; for pH Day 4: Table 3; for pH Day 11: Table 5; for pH Day 16: industrial grade urea 5.5%, calcium carbonate 69%, water 25.5% w/w
Protocol: The pH of a suspension is measured at 25° C. using a Mettler Toledo Seven Easy pH meter and a Mettler Toledo InLab® Expert Pro pH electrode. A three point calibration (according to the segment method) of the instrument is first made using commercially available buffer solutions having pH values of 4, 7 and 10 at 20° C. (from Aldrich). The reported pH values are the endpoint values detected by the instrument (the endpoint is when the measured signal differs by less than 0.1 mV from the average over the last 6 s).

rats = conditions: cited from earlier work
[7] = Table 2, urea 2.75%, calcium carbonate 73.1%, water 24.15% w/w
[8] = Table 2, urea 7.6%, calcium carbonate 67.1%, water 25.3% w/w
[9] = Table 3, urea 0.65%, calcium carbonate 75.7%, water 23.65% w/w
[10] = Table 3, urea 1.28%, calcium carbonate 74.9%, water 23.82% w/w
[11] = Table 3, urea 2.75%, calcium carbonate 73.1%, water 24.15% w/w
[12] = urea 2.75%, calcium carbonate 73.1%, water 24.15% w/w, inoculum none

NC(N)=O [urea]
15000 mg/kg: LD50 (rats)
9.10: pH Day 11 ([6]; urea 2.80%, calcium carbonate 75.21%, water 21.98% w/w, inoculum H60)
9.05: pH Day 4 ([6]; urea 1.28%, calcium carbonate 74.9%, water 23.82% w/w, inoculum none) | pH Day 11 ([6]; urea 0.40%, calcium carbonate 75.61%, water 23.99% w/w, inoculum H60)
100 cfu/ml: TVC cfu/ml Day 8 (Pseudomonas putida [2]; [7])
9.06: pH Day 4 ([6]; urea 0.65%, calcium carbonate 75.7%, water 23.65% w/w, inoculum none)
<100 cfu/ml: TVC cfu/ml Day 4 [1, 7] | TVC cfu/ml Day 8 [1, 7] | TVC cfu/ml Day 13 [1, 7] | TVC cfu/ml Day 1 ([1]; Table 2, urea 2.75%, calcium carbonate 73.1%, water 24.15% w/w, detection limit 100 cfu/ml) | TVC cfu/ml Day 1 [1, 8] | TVC cfu/ml Day 4 [1, 8] | TVC cfu/ml Day 8 [1, 8] | TVC cfu/ml Day 13 [1, 8] | TVC cfu/ml Day 4 [1, 9] | TVC cfu/ml Day 1 ([1]; Table 3, urea 0.65%, calcium carbonate 75.7%, water 23.65% w/w, detection limit 100 cfu/ml) | TVC cfu/ml Day 1 [1, 10] | TVC cfu/ml Day 4 [1, 10] | TVC cfu/ml Day 1 [1, 11] | TVC cfu/ml Day 4 [1, 11] | TVC cfu/ml Day 9 [1, 11] | TVC cfu/ml Day 1 (Pseudomonas putida [2]; [7]) | TVC cfu/ml Day 4 (Pseudomonas putida [2]; [7]) | TVC cfu/ml Day 13 (Pseudomonas putida [2]; [7]) | TVC cfu/ml Day 1 (Pseudomonas putida [2]; [8]) | TVC cfu/ml Day 4 (Pseudomonas putida [2]; [8]) | TVC cfu/ml Day 8 (Pseudomonas putida [2]; [8]) | TVC cfu/ml Day 13 (Pseudomonas putida [2]; [8]) | TVC cfu/ml Day 1 (Pseudomonas putida [2]; [11]) | TVC cfu/ml Day 4 (Pseudomonas putida [2]; [11]) | TVC cfu/ml Day 9 (Pseudomonas putida [2]; [11]) | TVC cfu/ml Day 1 [3, 7] | TVC cfu/ml Day 4 [3, 7] | TVC cfu/ml Day 8 [3, 7] | TVC cfu/ml Day 13 [3, 7] | TVC cfu/ml Day 1 [3, 8] | TVC cfu/ml Day 4 [3, 8] | TVC cfu/ml Day 8 [3, 8] | TVC cfu/ml Day 13 [3, 8] | TVC cfu/ml Day 1 [3, 11] | TVC cfu/ml Day 4 [3, 11] | TVC cfu/ml Day 9 [3, 11] | TVC cfu/ml Day 1 [4] | TVC cfu/ml Day 4 [4] | TVC cfu/ml Day 8 [4] | TVC cfu/ml Day 11 [4] | TVC cfu/ml Day 13 [4] | TVC cfu/ml Day 1 (Pseudomonas putida [5]) | TVC cfu/ml Day 4 (Pseudomonas putida [5]) | TVC cfu/ml Day 8 (Pseudomonas putida [5]) | TVC cfu/ml Day 11 (Pseudomonas putida [5]) | TVC cfu/ml Day 13 (Pseudomonas putida [5])
9.04: pH Day 16 ([6]; inoculum P. putida)
9.25: pH Day 8 ([6]; urea 7.6%, calcium carbonate 67.1%, water 25.3% w/w, inoculum none) | pH Day 11 ([6]; urea 1.10%, calcium carbonate 75.48%, water 23.42% w/w, inoculum H60)
9.11: pH Day 4 [6, 12]
9.16: pH Day 8 [6, 12]
8.97: pH Day 16 ([6]; inoculum H90)
>1E5 cfu/ml: TVC cfu/ml Day 1 (Pseudomonas putida [2]; [9]) | TVC cfu/ml Day 4 (Pseudomonas putida [2]; [9]) | TVC cfu/ml Day 1 [3, 9] | TVC cfu/ml Day 4 [3, 9]
9.02: pH Day 16 ([6]; inoculum E. coli) | pH Day 16 ([6]; inoculum none)
9.00: pH Day 16 ([6]; inoculum H60)
